Series [1] deals with aorta. Kind of series: In vivo rabbit aorta MR imaging. Further details: species or system New Zealand White male rabbits. The conditions noted are these: atherosclerotic rabbit, 0.1 mmol/kg via marginal ear vein, MR at 4.7 T, shortly after injection. Here is the method: A series of pre-injection images were acquired. The rabbit was then injected with test compound (i.e., Example 31) at 0.1 mmol/kg via the marginal ear vein and images acquired at specified time intervals. All images were acquired at 4.7 T using an 8.5 cm field of view, 256×256 matrix using a black blood, flow-suppressed spin-echo method.

Series [2] relates to Aorta bearing atherosclerotic plaque. The series can be described thus: Ex-vivo blood vessel binding assay. More on the design: species or system New Zealand white rabbits. The conditions noted are these: 153Gd-labeled compound 0.135 μCi in PBS, 2 h at 37° C., plaque-bearing rabbit aorta sections; percentage of initial activity. Here is the method:
Aorta bearing atherosclerotic plaque was obtained from New Zealand white rabbits that were balloon stripped along the abdominal aorta and placed on a high fat diet (0.5% cholesterol) for 16-22 weeks. Vascular injury was produced with a 4-F Fogarty catheter along the abdominal aorta and right iliofemoral artery. This procedure generates an accelerated complex lesion development with a lipid rich core covered by a fibrous cap in rabbits. Harvested aorta sections (0.5 cm) were incubated with 0.135 μCi of ^153Gd-labeled compound diluted in phosphate buffered saline (450 μL) for 2 h at 37° C. The supernatant was removed and analyzed by HPLC to assay compound stability. The tissue section was then washed with phosphate buffered saline (3×10 mL), then resuspended (10 mL) and incubated at 37° C. an additional 1 h. The supernatant was then removed, the washing process repeated and the tissue finally counted on a gamma counter. The amount of compound bound to the tissue was determined as a percentage of the initial activity according to the following formula: […]

In series [3] the test system is aorta. The following applies: 60 min post injection; for aorta uptake (% ID/g): ApoE mice on high-fat diet 35-42 weeks, 0.3-0.4 mCi/kg bolus via tail vein; for aorta:blood / aorta:heart: ApoE mice, uptake ratio. Here is the method: The apolipoprotein E (ApoE) knockout mouse is a model of hypercholesterolemia that develops atherosclerotic lesions in the brachiocephalic artery, the aortic arch and the abdominal aorta. Mice were fed a high-fat diet to accelerate plaque formation and compounds were tested in the mice between 35-42 weeks on diet. Test compounds were administered at 0.3-0.4 mCi/kg to anesthetized mice in a single, bolus injection via the tail vein. Blood samples were collected via the tail between 0-30 min post injection for pharmacokinetic analysis and mice were euthanized by CO2 at 60 min for tissue harvesting. The aorta was first flushed with saline through the left ventricle exiting via the femoral vein then removed from the heart to the renal bifurcation; additional biological samples were also collected (blood, muscle, liver, kidney, bile, urine, heart, femur, reproductive organ, lung, spleen and innominate artery). All samples were weighed and assayed for radioactivity; uptake is expressed as a percentage of injected dose per gram of tissue (% ID/g).

Series [4] concerns aorta. The conditions noted are these: 60 min post injection; for aorta (% ID/g ± SD): 0.01-0.05 mCi/kg bolus via marginal ear vein. Here is the method:
Atherosclerosis was induced in New Zealand White male rabbits (3 kg) with aortic balloon endothelial injury (vide supra) followed by feeding a 0.5% cholesterol diet for 22 weeks. Test compounds were administered at 0.01-0.05 mCi/kg to anesthetized rabbits in a single, bolus injection via the marginal ear vein. Blood samples were collected from the central ear artery at 0, 2, 5, 7, 10, 15, 30 and 60 min post injection. Rabbits were euthanized at 60 min post injection for tissue harvesting (blood, muscle, bile, urine, kidney, liver, spleen, heart, lung, colon, small intestine, stomach, testes and in some cases, sternum, ligament and right ear). Abdominal aorta (upper, middle, and lower) and left and right femoral arteries were also collected. All samples were weighed and assayed for radioactivity; uptake is expressed as percentage of injected dose per gram of tissue (% ID/g).

Setting [5] is: control rabbit (non-plaque bearing).

Where two headings read alike, the source gives them in different places.

`CC(C)C[C@@H](N)C(=O)NOCc1ccc(CNC(=O)CN2CCN(CC(=O)[O-])CCN(CC(=O)[O-])CCN(CC(=O)[O-])CC2)cc1.[Gd+3]` [Example 31]: the “relative image intensity in the aorta” value in the series on aorta [1] is “marked increase of relative image intensity in the aorta”.

Consider `[153Gd+3].[NH3+][C@H](CCc1ccccc1)C(=O)NOCc1ccc(CNC(=O)CN(CCN(CC(=O)[O-])CC(=O)[O-])CCN(CC(=O)[O-])CC(=O)[O-])cc1` [Example 37], for which the “% bound” value in series [2] is listed as 12.8%. Also, in the series with aorta [3], the “aorta uptake (% ID/g)” value came to 10.4 ± 1.4 % ID/g, the “aorta:blood” value is 4.2 and the “aorta:heart” value is on record as 16.2. In the series with aorta [4] (plaque rabbit), the “aorta (% ID/g ± SD)” value is on record as 0.087 ± 0.010 % ID/g, the “aorta:blood” value was 2.1 and the “aorta:heart” value is recorded as 4.6.

In the case of `N[C@H](CCc1ccccc1)C(=O)NOCc1ccc(CNC(=O)CN2CCN(CC(=O)[O-])CCN(CC(=O)[O-])CCN(CC(=O)[O-])CC2)cc1.[153Gd+3]` [Example 38], the “% bound” value in series [2] worked out at 19.1%. Besides, in the series with aorta [3], the “aorta uptake (% ID/g)” value turned out to be 11.6 ± 0.8 % ID/g, the “aorta:blood” value amounted to 5.5 and the “aorta:heart” value came out at 20.5. In addition, the “aorta (% ID/g ± SD)” value with aorta [4] (setting [5]) was 0.196 ± 0.023 % ID/g. In addition, in the series with aorta [4] (control rabbit), the “aorta:blood” value was determined as 5.1 and the “aorta:heart” value is reported as 11.0. In addition, in the series on aorta [4] (plaque rabbit), the “aorta (% ID/g ± SD)” value amounted to 0.103 ± 0.002 % ID/g, the “aorta:blood” value amounted to 2.4 and the “aorta:heart” value stood at 5.1.

Take `CC(C)C[C@@H]([NH3+])C(=O)NOc1ccc(CNC(=O)CN(CCN(CC(=O)[O-])CC(=O)[O-])CCN(CC(=O)[O-])CC(=O)[O-])cc1.[153Gd+3]` [Example 46]: in series [2], the “% bound” value is 0.9%. Also, in the series on aorta [3], the “aorta uptake (% ID/g)” value turned out to be 0.9 ± 0.2 % ID/g, the “aorta:blood” value is given as 1.1 and the “aorta:heart” value is given as 4.9.

With `[153Gd+3].[NH3+][C@H](CCc1ccccc1)C(=O)NOc1ccc(CNC(=O)CN(CCN(CC(=O)[O-])CC(=O)[O-])CCN(CC(=O)[O-])CC(=O)[O-])cc1` [Example 47], the “% bound” value in series [2] worked out at 6.6%. In the series with aorta [3], the “aorta uptake (% ID/g)” value is 4.7 ± 0.4 % ID/g, the “aorta:blood” value is 0.7 and the “aorta:heart” value turned out to be 4.8.

For `CC(C)C[C@@H]([NH3+])C(=O)NOCCc1ccc(CNC(=O)CN(CCN(CC(=O)[O-])CC(=O)[O-])CCN(CC(=O)[O-])CC(=O)[O-])cc1.[153Gd+3]` [Example 49], the “% bound” value in series [2] is listed as 9.1%. Also, in the series on aorta [3], the “aorta uptake (% ID/g)” value turned out to be 4.9 ± 0.2 % ID/g, the “aorta:blood” value is reported as 5.5 and the “aorta:heart” value is on record as 22.9.

As for `[153Gd+3].[NH3+][C@H](CCc1ccccc1)C(=O)NOCCc1ccc(CNC(=O)CN(CCN(CC(=O)[O-])CC(=O)[O-])CCN(CC(=O)[O-])CC(=O)[O-])cc1` [Example 50], the “% bound” value in series [2] amounted to 24.2%. Moreover, in the series on aorta [3], the “aorta uptake (% ID/g)” value is 10.4 ± 2.4 % ID/g, the “aorta:blood” value is 3.7 and the “aorta:heart” value amounted to 13.5.

For `CONC(=O)C(CCc1ccccc1)NCc1ccc(CNC(=O)CN2CCN(CC(=O)[O-])CCN(CC(=O)[O-])CCN(CC(=O)[O-])CC2)cc1.[153Gd+3]` (stereo not drawn) [Example 52], in series [2], the “% bound” value amounted to 6.9%. Moreover, in the series on aorta [3], the “aorta uptake (% ID/g)” value was 6.1 ± 1.2 % ID/g, the “aorta:blood” value is recorded as 2.0 and the “aorta:heart” value is recorded as 9.2.

For `[153Gd+3].[NH3+][C@H](Cc1ccc2ccccc2c1)C(=O)NOCc1ccc(CNC(=O)CN(CCN(CC(=O)[O-])CC(=O)[O-])CCN(CC(=O)[O-])CC(=O)[O-])cc1` [Example 57], in series [2], the “% bound” value is 30.6%. In the series with aorta [3], the “aorta uptake (% ID/g)” value is listed as 11.1 ± 0.3 % ID/g, the “aorta:blood” value was 5.0 and the “aorta:heart” value is recorded as 17.8.

Take `[153Gd+3].[NH3+][C@H](Cc1ccccc1)C(=O)NOCc1ccc(CNC(=O)CN(CCN(CC(=O)[O-])CC(=O)[O-])CCN(CC(=O)[O-])CC(=O)[O-])cc1` [Example 58]: the “% bound” value in series [2] was 7.3%. Moreover, in the series on aorta [3], the “aorta uptake (% ID/g)” value came to 6.1 ± 0.2 % ID/g, the “aorta:blood” value worked out at 6.5 and the “aorta:heart” value was 17.9.

Regarding `CC(C)C[C@@H](N)C(=O)NOCc1ccc(CNC(=O)CN2CCN(CC(=O)[O-])CCN(CC(=O)[O-])CCN(CC(=O)[O-])CC2)cc1.[153Gd+3]` [Example 59], the “% bound” value in series [2] turned out to be 5.2%. In the series on aorta [3], the “aorta uptake (% ID/g)” value is given as 8.2 ± 1.3 % ID/g, the “aorta:blood” value came out at 3.7 and the “aorta:heart” value is given as 15.4.

With `N[C@H](Cc1ccc2ccccc2c1)C(=O)NOCc1ccc(CNC(=O)CN2CCN(CC(=O)[O-])CCN(CC(=O)[O-])CCN(CC(=O)[O-])CC2)cc1.[153Gd+3]` [Example 60], the “% bound” value in series [2] is 30.9%. Also, in the series with aorta [3], the “aorta uptake (% ID/g)” value was 18.4 ± 2.4 % ID/g, the “aorta:blood” value stood at 9.8 and the “aorta:heart” value was found to be 25.2. Also, in the series with aorta [4] (setting [5]), the “aorta (% ID/g ± SD)” value came out at 0.187 ± 0.022 % ID/g. Further, in the series with aorta [4] (control rabbit), the “aorta:blood” value came out at 3.8 and the “aorta:heart” value was determined as 6.4. Moreover, in the series with aorta [4] (plaque rabbit), the “aorta (% ID/g ± SD)” value is on record as 0.108 ± 0.012 % ID/g, the “aorta:blood” value is given as 2.4 and the “aorta:heart” value was 4.0.

Take `[153Gd+3].[NH3+][C@H](Cc1cc2ccccc2[nH]1)C(=O)NOCc1ccc(CNC(=O)CN(CCN(CC(=O)[O-])CC(=O)[O-])CCN(CC(=O)[O-])CC(=O)[O-])cc1` [Example 61]: in series [2], the “% bound” value is 19.9%. In the series with aorta [3], the “aorta uptake (% ID/g)” value was 19.3 ± 0.2 % ID/g, the “aorta:blood” value is 10.9 and the “aorta:heart” value came out at 20.4.

Turning to `N[C@H](Cc1cc2ccccc2[nH]1)C(=O)NOCc1ccc(CNC(=O)CN2CCN(CC(=O)[O-])CCN(CC(=O)[O-])CCN(CC(=O)[O-])CC2)cc1.[153Gd+3]` [Example 62], in series [2], the “% bound” value was 17.1%. In the series with aorta [3], the “aorta uptake (% ID/g)” value amounted to 11.8 ± 1.4 % ID/g, the “aorta:blood” value is 5.7 and the “aorta:heart” value amounted to 22.2. Further, the “aorta (% ID/g ± SD)” value with aorta [4] (setting [5]) is listed as 0.159 % ID/g. In the series with aorta [4] (control rabbit), the “aorta:blood” value is listed as 3.2 and the “aorta:heart” value came out at 6.4.

For `[153Gd+3].[NH3+][C@H](Cc1ccc(O)cc1)C(=O)NOCc1ccc(CNC(=O)CN(CCN(CC(=O)[O-])CC(=O)[O-])CCN(CC(=O)[O-])CC(=O)[O-])cc1` [Example 63], the “% bound” value in series [2] was 11.7%. Further, in the series on aorta [3], the “aorta uptake (% ID/g)” value is 8.7 ± 0.4 % ID/g, the “aorta:blood” value is listed as 6.0 and the “aorta:heart” value is 13.0.
